In ChEMBL document CHEMBL1275326, “Synthesis and identification of a new class of antileukemic agents containing 2-(arylcarboxamide)-(S)-6-amino-4,5,6,7-tetrahydrobenzo[d]thiazole” (Eur J Med Chem, 2010) one finds IC50 and Activity data, which are given here for eight compounds.

For orientation: IC50 means the concentration at which inhibition is half-maximal.

Activity calls are given as the source filed them. The calls are words filed in the database; no cut-off is given here.

In series [1] the test system is K562. In words: Cytotoxicity against human K562 cells after 48 to 72 hrs by MTT assay. It is filed as functional, cell-based. In general terms: Formazan colour is commonly taken as a measure of viable cells.
The test system of series [2] is CCRF-CEM. In words: Cytotoxicity against human CEM cells after 48 to 72 hrs by MTT assay. It is filed as functional, cell-based.
The test system of series [3] is K562. In words: Cell cycle arrest in human K562 cells assessed as accumulation at S phase at 10 uM after 48 hrs using propidium iodide staining by FACS analysis. It is filed as functional, cell-based. On the technique in general: In flow cytometry, cells or beads pass a laser one at a time.
The subject of series [4] is K562. Briefly: Cell cycle arrest in human K562 cells assessed as accumulation at G2/M phase at 10 uM after 48 hrs using propidium iodide staining by FACS analysis. It is filed as functional, cell-based.
Series [5] relates to K562. In words: Cytotoxicity against human K562 cells after 24 hrs by LDH release assay. It is filed as functional, cell-based.
Series [6] has as its system K562. In words: Cell cycle arrest in human K562 cells assessed as accumulation at G0/G1 phase at 10 uM after 48 hrs using propidium iodide staining by FACS analysis. It is filed as functional, cell-based.
Series [7] has as its system K562. Briefly: Cell cycle arrest in human K562 cells assessed as accumulation at G1 phase at 10 uM after 48 hrs using propidium iodide staining by FACS analysis. It is filed as functional, cell-based.
For series [8], the system named is K562. In words: Cytotoxicity against human K562 cells at 10 to 100 uM by MTT assay. The conditions noted are these: TDE = time-dependent effect. It is filed as functional, cell-based.
Series [9] is described as follows: Cytotoxicity against human HEK293T cells at 1 to 5 uM after 48 to 72 hrs by MTT assay. It is filed as cell-based. The conditions noted are these: hek-293t.
For series [10], the system named is K562. Briefly: Cytotoxicity against human K562 cells at 10 to 100 uM after 24 hrs by trypan blue exclusion assay. It is filed as functional, cell-based.
Series [11] has as its system CCRF-CEM. Briefly: Cytotoxicity against human CEM cells at 10 to 100 uM by MTT assay. It is filed as functional, cell-based. To be noted: TDE = time-dependent effect.

Take `N[C@H]1CCc2nc(NC(=O)c3c(F)cccc3F)sc2C1`: the 50% inhibitory concentration (IC50) was more than 100 µM in the series with K562 [1] and 81.2 µM in the series on CCRF-CEM [2].

Take `CC(C)(C)c1ccc(C(=O)Nc2nc3c(s2)C[C@@H](N)CC3)cc1.Cl`: the Activity entry is “Dose-dependent effect” in the series on K562 [1]; “Dose-dependent effect” with K562 [5]; “Dose-dependent effect” in the series with CCRF-CEM [2]; “tde” in the series on K562 [8]; “Non-toxic” in series [9]; “tde” with CCRF-CEM [11]. The IC50 in the series with K562 [1] and in the series with CCRF-CEM [2] was 4.52 µM throughout. For the same compound, the outcome with K562 [3], in the series with K562 [4], in the series with K562 [6] and in the series with K562 [7] was inactive. The outcome in the series on K562 [10] was Active.

Turning to `N[C@H]1CCc2nc(NC(=O)c3ccc(Cl)cc3Cl)sc2C1`, the figures for the IC50 with K562 [1] and in the series on CCRF-CEM [2] were 7.72 µM and 8.72 µM, respectively.

Turning to `N[C@H]1CCc2nc(NC(=O)c3ccccc3F)sc2C1`, the results for the half-inhibitory concentration (IC50) in the series on K562 [1] and in the series on CCRF-CEM [2] were 57.2 µM and 56.6 µM, respectively.

With `N[C@H]1CCc2nc(NC(=O)c3cccc(Br)c3)sc2C1`, the half-inhibitory concentration (IC50) is 21 µM in the series on K562 [1] and 22.8 µM in the series with CCRF-CEM [2].

`N[C@H]1CCc2nc(NC(=O)c3cc([N+](=O)[O-])cc([N+](=O)[O-])c3)sc2C1`: the half-inhibitory concentration (IC50) in the series on K562 [1] was 8.16 µM; with CCRF-CEM [2], 9.02 µM.

With `COc1cccc(C(=O)Nc2nc3c(s2)C[C@@H](N)CC3)c1`, the 50% inhibitory concentration (IC50) in the series with K562 [1] worked out at 17.9 µM; in the series with CCRF-CEM [2], 13.8 µM.

Take `N[C@H]1CCc2nc(NC(=O)c3ccccc3)sc2C1`: the IC50 in the series on K562 [1] turned out to be 65.7 µM; with CCRF-CEM [2] it was 61.4 µM.
